# In patent publication US20100130725A1, “METHODS FOR CHARACTERIZING MOLECULES” (priority 2008, published 2010):
# How the values were obtained:
# [1] = test system: A431 cells; assay: EGF-induced DMR signal in partially quiescent A431 cells (20 hr in 0.1% fetal bovine serum); format: cell-based, human; conditions: partially quiescent A431, 20 hour starvation in 0.1% fetal bovine serum
# Source text: EGFR belongs to the family of receptor tyrosine kinases. EGF binds to and stimulates the intrinsic protein-tyrosine kinase activity of EGFR, initiating a signal transduction cascade, principally involving the MAPK, […] and JNK pathways. Upon EGF stimulation, there are many events leading to mass redistribution in A431 cells—a cell line endogenously over-expressing EGFRs. It is known that EGFR signaling depends on cellular status. As a result, the EGF-induced DMR signals are also dependent on the cellular status. In quiescent cells obtained through 20 hr culturing in 0.1% fetal bovine serum, EGF stimulation leads to a DMR signal with three distinct and sequential phases: (i) a positive phase with increased signal (P-DMR), (ii) a transition phase, and (iii) a decay phase (N-DMR). […]
# An Epic® cellular assay was conducted on partially quiescent A431 cells obtained through 1 day culture with serum containing medium followed by 20 hour starvation culturing in a medium containing 0.1% fetal bovine serum. […] Chemical biology and cell biology studies have shown that this EGF-induced DMR signal is primarily linked to the Ras/MAPK pathway, which proceeds through MEK and leads to cell detachment (Fang, Y., et al., (2005) “Characteristics of dynamic mass redistribution of EGF receptor signaling in living cells measured with label free optical biosensors”. Anal. Chem., 77, 5720-5725).
# [2] = test system: quiescent A431 cells; assay: Epic RWG biosensor DMR assay, agonist mode (primary profile), quiescent A431 cells; format: cell-based, human
# Experimental: All cell lines were obtained from American Type Cell Culture (Manassas, Va.). The cell culture medium was as follows: Dulbecco's modified Eagle's medium (DMEM) supplemented with 10% fetal bovine serum (FBS), 4.5 g/liter glucose, 2 mM glutamine, and antibiotics for human epidermoid carcinoma A431 and human lung carcinoma A549.
# Cells were typically grown using ˜1 to 2×10^4 cells per well at passage 3 to 15 suspended in 50 μl of the corresponding culture medium in the biosensor microplate, and were cultured at 37° C. under air/5% CO2 for ˜1 day. Except for A431, which was subject to ˜20 hr starvation through continuous culture in the serum-free DMEM, the other cell types were directly assayed without starvation. The confluency for all cells at the time of assays was ˜95% to 100%.
# Epic® wavelength interrogation system (Corning Inc., Corning, N.Y.) was used for whole cell sensing. This system consists of a temperature-control unit, an optical detection unit, and an on-board liquid handling unit with robotics. The detection unit is centered on integrated fiber optics, and enables kinetic measures of cellular responses with a time interval of ˜15 sec.
# The RWG biosensor is capable of detecting minute changes in local index of refraction near the sensor surface. Since the local index of refraction within a cell is a function of density and its distribution of biomass (e.g., proteins, molecular complexes), the biosensor exploits its evanescent wave to non-invasively detect ligand-induced dynamic mass redistribution in native cells. […]
# For biosensor cellular assays, molecule solutions were made by diluting the stored concentrated solutions with the HBSS (1× Hanks balanced salt solution, plus 20 mM Hepes, pH 7.1), and transferred into a 384 well polypropylene molecule storage plate to prepare a molecule source plate. […] Both the cell assay plate and the molecule and marker source plate(s) were then incubated in the hotel of the reader system. After ˜1 hr of incubation the baseline wavelengths of all biosensors in the cell assay microplate were recorded and normalized to zero. […]
substance,measurement,setting,value
epidermal growth factor [EGF],DMR signal triggered by EGF,[1],DMR signal with two distinct and sequential phases
same,EC80 for triggering the DMR signal,[2]; fully quiescent A431 cells,~32 nM
same,DMR signal triggered by EGF,"[2]; fully quiescent A431 cells, EGF 32 nM, average of 32 replicates",distinct and robust DMR signal
same,DMR response as a function of EGF dose,"[2]; quiescent A431 cells, data not shown",dose-dependent response
